Assay results as given in the supplement of paper PMC11208160.

experiment: recombinant UMI read abundance after kanamycin selection (control-corrected) (log10(CPM+1)); higher = more efficient recombination; extreme values may be limits of the assay; sequences stand for … in AGTGCAGAGAAAATCGGCCAGTTTTCTCTGCCTGCAGTCCGCATGCCGTGGGACCCCTTGGGTTCTAACCTGTTGCCTAGATTTATGCAGCGGACTGCCTTTCTCCCAAAGTGATAAACCGG…AGGTTGGTTTCACT; site = the 11-nt donor
Method: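 Pooled E. coli donor-specificity screen for the IS621 bridge recombinase. Each library member carries a reprogrammed 11-nt donor and a full-length LE bridge RNA expressed in cis from the natural promoter, with a paired donor-binding loop (8-nt LDG + 4-nt RDG) and a target-binding loop fixed to T5. It is co-electroporated with a T5 target plasmid; recombinase is induced with 0.07 mM IPTG and recombinants are selected on kanamycin. UMIs are counted as CPM, averaged over two biological replicates and corrected by the unselected control. Molecule = full bridge RNA written as DNA, built from the T5 scaffold: LDG = donor specificity nt 1-8, RDG = reverse complement of nt 8-11.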
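Note: IS621 bridge recombinase in Escherichia coli cells against a fixed T5 target plasmid.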

“AGAAAGTCATGGACCGGTTTTCCCGGTAATCCGTATTTGCT (site AGAAAGCCTAG)” and “AGAAAGTCATGGACCGGTTTTCCCGGTAATCCGTATTTGCT (site AGAAAGGCTAG)” are the same in “recombinant UMI read abundance (log10)” value: 0 for the first, 0 for the second.

First: AGAAAGTCATGGACCGGTTTTCCCGGTAATCCGTATTTGCT (site AGAAAGTCTAG)
Second: AGAACAACATGGACCGGTTTTCCCGGTAATCCGTATTTGTG (site AGAACAACTCA)
The “recombinant UMI read abundance (log10)” value of the first is higher: 2.63 for the first, 1.29 for the second.

Compared with “AGAATCACATGGACCGGTTTTCCCGGTAATCCGTATTTGAA (site AGAATCACTTT)”, “AGACGAACATGGACCGGTTTTCCCGGTAATCCGTATTTGGA (site AGACGAACTTC)” is lower in “recombinant UMI read abundance (log10)” value: 2.16 for the first, 1.82 for the second.

First: AGACGCACATGGACCGGTTTTCCCGGTAATCCGTATTTGAA (site AGACGCACTTT)
Second: AGACGCGCATGGACCGGTTTTCCCGGTAATCCGTATTTGTA (site AGACGCGCTTA)
The “recombinant UMI read abundance (log10)” value of the first is lower: 1.43 for the first, 2.72 for the second.

First: AGACGGTCATGGACCGGTTTTCCCGGTAATCCGTATTTGGC (site AGACGGTCTGC)
Second: AGACTAACATGGACCGGTTTTCCCGGTAATCCGTATTTGCT (site AGACTAACTAG)
The “recombinant UMI read abundance (log10)” value of the first is higher: 3.28 for the first, 2.61 for the second.

Compared with “AGACTAGCATGGACCGGTTTTCCCGGTAATCCGTATTTGTT (site AGACTAGCTAA)”, “AGACTAGCATGGACCGGTTTTCCCGGTAATCCGTATTTGTT (site AGCCTAGCTAA)” is lower in “recombinant UMI read abundance (log10)” value: 1.07 for the first, 0.00926 for the second.

“AGACTAGCATGGACCGGTTTTCCCGGTAATCCGTATTTGTT (site AGGCTAGCTAA)” and “AGACTAGCATGGACCGGTTTTCCCGGTAATCCGTATTTGTT (site AGTCTAGCTAA)” are within 0.2 log units of each other in “recombinant UMI read abundance (log10)” value: 0.0149 for the first, 0.0145 for the second.

Going from “AGAGACGCATGGACCGGTTTTCCCGGTAATCCGTATTTGAG (site AGAGACGCTCT)” to “AGAGAGACATGGACCGGTTTTCCCGGTAATCCGTATTTGCA (site AGAGAGACTTG)”, the “recombinant UMI read abundance (log10)” value rises from 2.67 to 2.98.

Going from “AGAGAGACATGGACCGGTTTTCCCGGTAATCCGTATTTGCA (site AGGAAGACTTG)” to “AGAGAGGCATGGACCGGTTTTCCCGGTAATCCGTATTTGCT (site AGAAAGGCTAG)”, the “recombinant UMI read abundance (log10)” value rises from 1.56 to 2.43.

First: AGAGAGGCATGGACCGGTTTTCCCGGTAATCCGTATTTGCT (site AGACAGGCTAG)
Second: AGAGAGGCATGGACCGGTTTTCCCGGTAATCCGTATTTGCT (site AGAGAGGCTAG)
The “recombinant UMI read abundance (log10)” value of the first is lower: 0.828 for the first, 2.19 for the second.

Compared with “AGAGAGGCATGGACCGGTTTTCCCGGTAATCCGTATTTGCT (site AGATAGGCTAG)”, “AGAGATGCATGGACCGGTTTTCCCGGTAATCCGTATTTGGG (site AGAGATGCTCC)” is lower in “recombinant UMI read abundance (log10)” value: 1.69 for the first, 1.2 for the second.

First: AGAGCATCATGGACCGGTTTTCCCGGTAATCCGTATTTGCT (site AGAGCATCTAG)
Second: AGAGCATCATGGACCGGTTTTCCCGGTAATCCGTATTTGCT (site CGATCATCTAG)
The “recombinant UMI read abundance (log10)” value of the first is higher: 2.16 for the first, 0 for the second.

“AGAGCTTCATGGACCGGTTTTCCCGGTAATCCGTATTTGGA (site AGAGCTTCTTC)” and “AGAGTATCATGGACCGGTTTTCCCGGTAATCCGTATTTGAA (site ACAGTATCTTG)” are within 0.2 log units of each other in “recombinant UMI read abundance (log10)” value: 2.31 for the first, 2.21 for the second.

First: AGAGTATCATGGACCGGTTTTCCCGGTAATCCGTATTTGAA (site AGAGTATCTTT)
Second: AGAGTGGCATGGACCGGTTTTCCCGGTAATCCGTATTTGGT (site AGAGTGGCTAC)
The “recombinant UMI read abundance (log10)” value of the first is higher: 3.15 for the first, 1.47 for the second.

Going from “AGAGTGGCATGGACCGGTTTTCCCGGTAATCCGTATTTGGT (site CGAGTGGCTAC)” to “AGAGTGGCATGGACCGGTTTTCCCGGTAATCCGTATTTGGT (site GGAGTGGCTAC)”, the “recombinant UMI read abundance (log10)” value falls from 0.973 to 0.101.

Compared with “AGAGTGGCATGGACCGGTTTTCCCGGTAATCCGTATTTGGT (site TGAGTGGCTAC)”, “AGATATCCATGGACCGGTTTTCCCGGTAATCCGTATTTGAT (site AGATATCCTAT)” is higher in “recombinant UMI read abundance (log10)” value: 0.546 for the first, 1.12 for the second.

Compared with “AGATCAGCATGGACCGGTTTTCCCGGTAATCCGTATTTGCT (site AGATCAGCTAG)”, “AGATCAGCATGGACCGGTTTTCCCGGTAATCCGTATTTGCT (site CGATCATCTAG)” is lower in “recombinant UMI read abundance (log10)” value: 2.68 for the first, 0 for the second.

First: AGATCAGCATGGACCGGTTTTCCCGGTAATCCGTATTTGGG (site AGATCAGCTCC)
Second: AGATCAGCATGGACCGGTTTTCCCGGTAATCCGTATTTGGG (site AGCTCAGCTCC)
The “recombinant UMI read abundance (log10)” value of the first is higher: 0.224 for the first, 0.00476 for the second.

Compared with “AGATCAGCATGGACCGGTTTTCCCGGTAATCCGTATTTGGG (site AGGTCAGCTCC)”, “AGATCAGCATGGACCGGTTTTCCCGGTAATCCGTATTTGGG (site AGTTCAGCTCC)” is higher in “recombinant UMI read abundance (log10)” value: 0.014 for the first, 0.296 for the second.

Compared with “AGATCCTCATGGACCGGTTTTCCCGGTAATCCGTATTTGTT (site AGATCCTCTAA)”, “AGATCGACATGGACCGGTTTTCCCGGTAATCCGTATTTGTT (site AGATCGACTAA)” is lower in “recombinant UMI read abundance (log10)” value: 2.08 for the first, 0.688 for the second.

“AGATCGACATGGACCGGTTTTCCCGGTAATCCGTATTTGTT (site CGATCGACTAA)” and “AGATCGACATGGACCGGTTTTCCCGGTAATCCGTATTTGTT (site GGATCGACTAA)” are within 0.2 log units of each other in “recombinant UMI read abundance (log10)” value: 0.0123 for the first, 0.012 for the second.

Compared with “AGATCGACATGGACCGGTTTTCCCGGTAATCCGTATTTGTT (site TGATCGACTAA)”, “AGATGCGCATGGACCGGTTTTCCCGGTAATCCGTATTTGAG (site AGATGCGCTCT)” is higher in “recombinant UMI read abundance (log10)” value: 0.00951 for the first, 1.86 for the second.

First: AGATGGGCATGGACCGGTTTTCCCGGTAATCCGTATTTGGA (site AGATGGGCTTC)
Second: AGATTATCATGGACCGGTTTTCCCGGTAATCCGTATTTGCT (site AGATTATCTAG)
The “recombinant UMI read abundance (log10)” value of the first is lower: 1.22 for the first, 2.71 for the second.

First: AGATTATCATGGACCGGTTTTCCCGGTAATCCGTATTTGCT (site CGATCATCTAG)
Second: AGCAAGACATGGACCGGTTTTCCCGGTAATCCGTATTTGCT (site AGCAAGACTAG)
The “recombinant UMI read abundance (log10)” value of the first is lower: 0 for the first, 1.94 for the second.

Compared with “AGCAAGACATGGACCGGTTTTCCCGGTAATCCGTATTTGCT (site AGGAAGACTTG)”, “AGCAAGACATGGACCGGTTTTCCCGGTAATCCGTATTTGGA (site AGCAAGACTTC)” is higher in “recombinant UMI read abundance (log10)” value: 0 for the first, 1.8 for the second.

“AGCAAGACATGGACCGGTTTTCCCGGTAATCCGTATTTGGA (site AGGAAGACTTG)” and “AGCAAGGCATGGACCGGTTTTCCCGGTAATCCGTATTTGCT (site AGAAAGGCTAG)” are the same in “recombinant UMI read abundance (log10)” value: 0 for the first, 0 for the second.

First: AGCAAGGCATGGACCGGTTTTCCCGGTAATCCGTATTTGCT (site AGCAAGGCTAG)
Second: AGCAAGGCATGGACCGGTTTTCCCGGTAATCCGTATTTGCT (site AGGAAGGCTAG)
The “recombinant UMI read abundance (log10)” value of the first is higher: 2.61 for the first, 0.0349 for the second.

Going from “AGCAAGGCATGGACCGGTTTTCCCGGTAATCCGTATTTGCT (site AGTAAGGCTAG)” to “AGCAATCCATGGACCGGTTTTCCCGGTAATCCGTATTTGAA (site AGCAATCCTTT)”, the “recombinant UMI read abundance (log10)” value rises from 0.238 to 1.33.

“AGCAATCCATGGACCGGTTTTCCCGGTAATCCGTATTTGAA (site CGCAATCCTTT)” and “AGCAATCCATGGACCGGTTTTCCCGGTAATCCGTATTTGAA (site GGCAATCCTTT)” are within 0.2 log units of each other in “recombinant UMI read abundance (log10)” value: 0 for the first, 0.00676 for the second.

First: AGCAATCCATGGACCGGTTTTCCCGGTAATCCGTATTTGAA (site TGCAATCCTTT)
Second: AGCACGTCATGGACCGGTTTTCCCGGTAATCCGTATTTGAC (site AGCACGTCTGT)
The “recombinant UMI read abundance (log10)” value of the first is lower: 0.186 for the first, 2.28 for the second.

Going from “AGCAGATCATGGACCGGTTTTCCCGGTAATCCGTATTTGAA (site AGCAGATCTTT)” to “AGCAGTACATGGACCGGTTTTCCCGGTAATCCGTATTTGCG (site AGCAGTACTCG)”, the “recombinant UMI read abundance (log10)” value falls from 1.77 to 1.25.

Going from “AGCAGTGCATGGACCGGTTTTCCCGGTAATCCGTATTTGAG (site AGCAGTGCTCT)” to “AGCATTACATGGACCGGTTTTCCCGGTAATCCGTATTTGAT (site AGCATTACTAT)”, the “recombinant UMI read abundance (log10)” value falls from 1.93 to 1.01.

Going from “AGCATTCCATGGACCGGTTTTCCCGGTAATCCGTATTTGTC (site AGCATTCCTGA)” to “AGCCAAGCATGGACCGGTTTTCCCGGTAATCCGTATTTGTT (site AGCCAAGCTAA)”, the “recombinant UMI read abundance (log10)” value rises from 0 to 1.09.

“AGCCAAGCATGGACCGGTTTTCCCGGTAATCCGTATTTGTT (site AGCCCAGCTAA)” and “AGCCAAGCATGGACCGGTTTTCCCGGTAATCCGTATTTGTT (site AGCCGAGCTAA)” are within 0.2 log units of each other in “recombinant UMI read abundance (log10)” value: 0.0145 for the first, 0.00778 for the second.

“AGCCAAGCATGGACCGGTTTTCCCGGTAATCCGTATTTGTT (site AGCCTAGCTAA)” and “AGCCCAGCATGGACCGGTTTTCCCGGTAATCCGTATTTGGG (site AGCACAGCTCC)” are within 0.2 log units of each other in “recombinant UMI read abundance (log10)” value: 0.0061 for the first, 0.0163 for the second.

Going from “AGCCCAGCATGGACCGGTTTTCCCGGTAATCCGTATTTGGG (site AGCCCAGCTCC)” to “AGCCCAGCATGGACCGGTTTTCCCGGTAATCCGTATTTGGG (site AGCGCAGCTCC)”, the “recombinant UMI read abundance (log10)” value falls from 0.35 to 0.0133.
